Source: PubChem BioAssay (NCI)
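A five-concentration, 48-hour dose response in 96-well plates underlies each endpoint, interpolated linearly between surrounding concentrations. At the TGI there is no net growth.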

Experiments:
Assay in all cases: NCI tumour cell line growth inhibition, 48 h
MDA-N = system: MDA-N
COLO 205 colon = system: COLO 205 colon
HS 578T breast = system: HS 578T breast
TK-10 renal = system: TK-10 renal
SW-620 colon = system: SW-620 colon
NCI-H23 lung = system: NCI-H23 lung
EKVX NSCLC = system: EKVX NSCLC
CAKI-1 renal = system: CAKI-1 renal
SNB-75 CNS = system: SNB-75 CNS
MDA-MB-231 breast = system: MDA-MB-231 breast

SMILES: O=C(O)[C@H]1[C@@H](C2CCCCC2)O[C@@H](C2CCCCC2)O[C@H]1C(F)(F)F
- TGI (MDA-N): 30.7 µM
- TGI (COLO 205 colon): 77.9 µM
- TGI (HS 578T breast): 58.8 µM
- TGI (TK-10 renal): > 100 µM
- TGI (SW-620 colon): 52.8 µM
- TGI (NCI-H23 lung): 42.6 µM
- TGI (EKVX NSCLC): 43.1 µM
- TGI (CAKI-1 renal): 36.4 µM
- TGI (SNB-75 CNS): 38.2 µM
- TGI (MDA-MB-231 breast): 36.2 µM

SMILES: Nc1nc2c(=O)c3ccccc3sc2s1
- TGI (MDA-N): > 100 µM
- TGI (COLO 205 colon): > 100 µM
- TGI (HS 578T breast): > 100 µM
- TGI (TK-10 renal): > 100 µM
- TGI (SW-620 colon): > 100 µM
- TGI (NCI-H23 lung): > 100 µM
- TGI (EKVX NSCLC): > 100 µM
- TGI (CAKI-1 renal): 91.6 µM
- TGI (SNB-75 CNS): > 100 µM
- TGI (MDA-MB-231 breast): > 100 µM
